Measurements taken from PMC11157767 (Molecular Cancer, 2024).
Several values for one entry are separate records, joined by “and”; a condition that tells them apart may be missing. Equal entries are not always repeated. Where two headings read alike, the source gives them in different places.

Tests used:
[1] = test system: TFG-MET allograft tumors; assay: TFG-MET allograft preclinical trial in CD1 mice, Survival cohort (survival, BLI, body weight); format: in vivo, mouse; details: Murine allografts
Protocol: All treatments started 1 week after transplantation. Radio therapy was administered for 6 days, delivering 12 Gy total. Compound treatment was continued for 84 days. […] N = 8 (vehicle arms) or n = 10 (compound-treated arms), respectively. […] First row is depicted in another intensity scale to visualize tumors in all mice. The depicted scale bar indicates the range from 5x10^5-1x10^7 photons/sec/cm^2/sr.
Survival, body weight and tumor burden data from TFG-MET allograft-bearing mice. a,Schematic illustrating the preliminary in vivo study to determine the efficacy of RT alone. b, Survival curve of mice depicted in a. […] Each line represents one mouse. The ends of lines indicate the onset of neurological symptoms and thereby the endpoints.
Bioluminescence signals of in vivo trials.

[2] = test system: MET-fusion pHGG; details: cited from earlier work
[3] = test system: TRIM24-MET-r cells; assay: 3-day dose-response assay, TRIM24-MET-r cells; format: cell-based; details: Homo sapiens
[4] = Plasma pharmacokinetics in CD-1 nude mice (NCA); format: in vivo, mouse
Protocol: (§1) Fig. 2 TFG-MET-driven mouse model and pharmacokinetic profiles of MET inhibitors. a Schematic illustrating the method and utilized vectors to induce CRISPR/Cas9-mediated Trp53 deletion and TFG-MET overexpression following in utero electroporations. b H&E staining and Immunohistochemical analysis of a tumor generated by in utero electroporation, visualized by the HA-tag of TFG-MET. […] Three mice were analyzed per compound and time point. Error bars indicate the standard deviation. Dashed rectangles indicate time windows of radiation in the following preclinical allograft study
(§2) See Methods – Pharmacokinetics section for a description of abbreviations.

[5] = In vitro protein binding assay, culture media; format: in vitro ADME; details: read-out: unbound drug fraction, Culture Media, AVG
[6] = test system: RAD51; assay: Western blot of RAD51 in TRIM24-MET or TFG-MET cells, 24 hours; format: cell-based, human and mouse
Protocol: Error bars display standard error of mean, statistical significance was determined using t-test analysis. (****;p<0.0001, ***;p<0.001, **;p<0.01, *;p<0.05). […] Each dot represents an individual replicate. Error bars display standard error of the mean. Statistical significance was determined using a One-Way ANOVA followed by Tukey’s multiple comparisons test (*p<0.05, **p<0.01, ***p<0.001, ****p<0.0001). Lysate from lane 10 was excluded due to the different timepoint after RT

[7] = test system: murine TFG-MET tumor cells; assay: cells; details: Mus musculus
From the text: To calculate unbound EC50 and EC90 values, total values were multiplied with unbound drug fractions in culture media (Table 1).

[8] = in vitro; details: mouse, plasma
[9] = in vitro; details: mouse, brain homogenate
[10] = Brain pharmacokinetics in CD-1 nude mice (NCA); format: in vivo, mouse
Protocol: as §1, §2

[11] = CD-1 nude, mouse, Plasma, NCA estimate
[12] = CD-1 nude, mouse, Brain, NCA estimate

In the case of C[C@@H](Oc1cc(-c2cnn(C3CCNCC3)c2)cnc1N)c1c(Cl)ccc(F)c1Cl [Crizotinib], the “BLI signal, individual mice” value ([1]; day 7, drug + RT) is reported as 3.20E+07 and 3.90E+07 and 3.50E+08 and 1.10E+08 and 1.40E+07 and 8.30E+05 and 5.70E+06 and 1.70E+07 and 6.90E+05 and 4.00E+06, the “BLI signal, individual mice” value ([1]; day 7, drug alone) is reported as 8.40E+06 and 1.40E+07 and 3.90E+08 and 2.00E+06 and 1.50E+07 and 3.90E+06 and 6.00E+06 and 4.10E+06 and 1.20E+06 and 8.20E+06 and the “BLI signal, individual mice” value ([1]; day 10, drug + RT) is reported as 3.00E+07 and 4.60E+07 and 1.60E+08 and 1.80E+08 and 5.10E+07 and 1.20E+06 and 1.50E+07 and 6.00E+05 and 7.00E+06. The “BLI signal, individual mice” value ([1]; day 10, drug alone) was 2.30E+07 and 6.50E+07 and 3.70E+08 and 3.10E+06 and 5.60E+07 and 6.20E+06 and 3.30E+07 and 1.30E+07 and 3.50E+06 and 2.70E+06, the “BLI signal, individual mice” value ([1]; day 14, drug + RT) was 1.90E+06 and 9.10E+07 and 9.70E+07 and 7.90E+07 and 7.60E+05 and 1.70E+08 and 5.90E+08 and 6.70E+05 and 3.10E+07 and the “BLI signal, individual mice” value ([1]; day 14, drug alone) was 5.20E+07 and 1.80E+09 and 3.60E+07 and 3.20E+08 and 6.50E+07 and 1.60E+08 and 1.70E+07 and 1.10E+07 and 2.00E+07. The “BLI signal, individual mice” value ([1]; day 21, drug + RT) was 1.00E+05 and 5.60E+06 and 1.60E+07, the “BLI signal, individual mice” value ([1]; day 21, drug alone) was 3.40E+07 and 2.10E+08 and 2.60E+08 and 2.60E+07 and 1.40E+08 and 8.10E+07 and the “BLI signal, individual mice” value ([1]; day 28, drug + RT) was 1.20E+08 and 2.10E+07. The “BLI signal, individual mice” value ([1]; day 28, drug alone) was 5.90E+07 and 2.20E+08 and 4.40E+08 and 3.00E+08, the “BLI signal, individual mice” value ([1]; day 35, drug + RT) was 1.30E+05 and 1.70E+07 and the “BLI signal, individual mice” value ([1]; day 35, drug alone) was 1.00E+07 and 8.70E+08 and 6.50E+08. The “BLI signal, individual mice” value ([1]; day 42, drug + RT) was 1.30E+05, the “BLI signal, individual mice” value ([1]; day 42, drug alone) was 1.00E+07 and 1.20E+09 and the “BLI signal, individual mice” value ([1]; day 49, drug alone) was 1.90E+06. The “BLI signal, individual mice” value ([1]; day 56, drug + RT) was 1.30E+05, the “BLI signal, individual mice” value ([1]; day 56, drug alone) was 2.20E+06 and the “BLI signal, individual mice” value ([1]; day 63, drug alone) was 1.90E+07. The “BLI signal, individual mice” value ([1]; day 70, drug + RT) was 1.00E+05, the “BLI signal, individual mice” value ([1]; day 70, drug alone) was 2.30E+07 and the “BLI signal, individual mice” value ([1]; day 84, drug + RT) was 1.26E+05. For the same molecule, the “BLI signal, individual mice” value ([1]; day 91, drug alone) was 1.06E+05, the “clinical response of one pHGG patient with MET fusion” value [2] was “partial response with rapid tumor relapse” and the EC50 ([3]; 72 h, read-out: EC50 Total) was 151 nM. For the same molecule, the EC90 ([3]; 72 h, read-out: EC90 Total) was 5670 nM, the EC50 ([3]; read-out: EC50 Unbound) was 93 nM and the EC90 ([3]; read-out: EC90 Unbound) was 3500 nM. For the same molecule, the “time of reaching Cmax” value ([4]; CD1 nude mice, post dose, brain and plasma not distinguished) was 4 h, the AUC ([4]; CD-1 nude, mouse, plasma, 25 mg/kg, read-out: total plasma AUC) was 64700 ng·h/mL and the AUC(0-inf) [4, 11] was 64700 ng·h/mL. The AUC(0-t) [4, 11] was 42400 ng·h/mL, the CL/F [4, 11] was 25.8 mL/min/kg and the Cmax [4, 11] was 5040 ng/mL. The Tmax [4, 11] was 1 h, the half-life [4, 11] was 10.3 h and the k el [4, 11] was 1.86e-05 s⁻¹. It also gave a Vd/F ([4]; CD-1 nude, mouse, Plasma, NCA estimate, read-out: Vz/F) of 23 L/kg, a Clast ([4]; Plasma, NCA estimate) of 1670 ng/mL and a Tlast ([4]; Plasma, NCA estimate) of 16 h. The fraction unbound [5] was 0.617, the RAD51 protein level [6] was “downregulation” and the EC50 ([7]; read-out: EC50 (nM) Total) was 124 nM. The EC50 ([7]; read-out: EC50 (nM) Unbound*) was 76.2 nM, the EC90 ([7]; read-out: EC90 (nM) Total) was 612 nM and the EC90 ([7]; read-out: EC90 (nM) Unbound*) was 378 nM. It also gave an IC50 ([7]; read-out: in vitro IC50) of 124 nM, a fraction unbound [8] of 0.0223 and a fraction unbound [9] of 0.0106. For the same molecule, the Clast ([10]; Brain, NCA estimate) was 453 ng/mL, the Tlast ([10]; Brain, NCA estimate) was 16 h and the “maximal concentration of unbound drug in the brain” value ([10]; CD1 nude mice, estimated with Fu,b) was ~ 11 nM. For the same molecule, the “concentration reached in brain tissues” value ([10]; CD1 nude mice, total drug) was greater than 1000 nM, the AUC(0-t) [10, 12] was 6570 ng·h/mL and the Cmax [10, 12] was 453 ng/mL. For the same molecule, the Tmax [10, 12] was 4 h and the Kp ([10]; CD-1 nude, mouse, Brain, NCA estimate, read-out: Kp,last) was 0.155.
